Test results from patent US20100022527A1, “BIPHENYL SUBSTITUTED SPIROTETRONIC ACIDS AND THEIR USE FOR THE TREATMENT OF RETROVIRAL DISEASES” (priority 2006, published 2010).

Target: T1, HIV-1 protease wild type protein (Human immunodeficiency virus type 1 group M subtype B, UniProt P04585)
T1 construct: HIV-1 protease wild type protein; purchased AscoProt Biotech, Prague, Czech Republic
Assay: Biochemical protease assay
Procedure: For the determination of their in vitro activity on HIV proteases the test substances are dissolved in DMSO and serially diluted. In each case 0.5 μl of substance dilution, 20 μl of 0.2-1 nM HIV-1 protease wild type or mutant protein (e.g., multiresistant isolate “35513”: L10I, I15V, L19I, K20R, E35D, M36I, R41K, I54V, L63P, H69K, A71V, T74P, I84V, L89M, L90M, 193L, AscoProt Biotech, Prague, Czech Republic) in buffer 1 (50 mM sodium acetate pH 4.9, 0.02% BSA, 0.1 mM EDTA, 0.5 mM DTT) and 20 μl of 8 μM substrate (M1865 from Bachem, Bubendorf, Switzerland; Matayoshi et al., Science 1990, 247, 954-8) in buffer 1 are added successively to a 384 well microtiter plate (Greiner, Frickenhausen, Germany), incubated for 60-180 minutes at 32° C. and the fluorescence is measured (e.g., Tecan Safire, 340 nm extinction, 520 nm emission). IC50 values are determined by graphical plotting the substance concentration against the percentage inhibition.

Structure (SMILES)	IC50 [nM]
Cc1cc(-c2cccc(S(C)(=O)=O)c2)c(Cl)cc1C1=C(O)C2(CCN(C(=O)Cc3ccc(S(=O)(=O)O)cc3)CC2)OC1=O [Example 143]	≤ 100
Cc1cc(-c2cccc(S(C)(=O)=O)c2)c(Cl)cc1C1=C(O)C2(CCCN(CC(=O)NCCc3ccccc3)C2)OC1=O (stereo not drawn) [Example 130]	≤ 100
Cc1cc(-c2cc(C)c(C3=C(O)C4(CCCCC4)OC3=O)cc2Cl)ccc1F [Example 34]	≤ 100
Cc1cc(-c2cccc(S(C)(=O)=O)c2)c(Cl)cc1C1=C(O)C2(CCCN(CC(=O)NCc3ccccc3)C2)OC1=O (single isomer, unassigned) [Example 164]	≤ 100
COC1CCCCC12OC(=O)C(c1cc(C)c(-c3ccc(Cl)cc3)cc1C)=C2O (stereo not drawn) [Example 15]	≤ 100
Cc1cc(-c2ccc(Cl)cc2)ccc1C1=C(O)C2(CCCCC2)OC1=O [Example 61]	≤ 100
Cc1cc(-c2cccc(S(C)(=O)=O)c2)c(Cl)cc1C1=C(O)C2(CCCN(C(=O)/C=C\c3cnn(C)c3)C2)OC1=O (stereo not drawn) [Example 121]	≤ 100
CC/C=C\C(=O)N1CCCC2(C1)OC(=O)C(c1cc(Cl)c(-c3cccc(S(C)(=O)=O)c3)cc1C)=C2O (stereo not drawn) [Example 120]	≤ 100
Cc1cc(-c2cccc(S(C)(=O)=O)c2)c(Cl)cc1C1=C(O)C2(CCN(C(=O)N(C(C)C)C(C)C)CC2)OC1=O [Example 156]	≤ 100
